The values that follow come from patent publication US6407104B1, “Pyrrolo[1,2-a]pyrazine spla2 inhibitor” (Shionogi & Co., Ltd., priority 1998, dated 2002).

In data set [1] the target is T1, recombinant human secretory phospholipase A2 (Homo sapiens, UniProt P14555).
T1 sequence (P14555 21-144): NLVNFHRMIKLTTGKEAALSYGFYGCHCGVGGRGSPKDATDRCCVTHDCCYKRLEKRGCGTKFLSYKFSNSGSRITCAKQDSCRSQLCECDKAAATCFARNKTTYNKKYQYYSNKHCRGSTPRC
The data set can be described thus: Inhibition Test of Human Secretory Phospholipase A2 (chromogenic assay). Type of data set: biochemical. Particulars: sPLA2 50 ng/well, 40° C., 30 minutes, OD 405 nm, 96 well microtiterplate. From the text: Test Example: Inhibition Test of Human Secretory Phospholipase A2
In order to identify and evaluate an inhibitor of recombinant human secretory phospholipase A2, the following chromogenic assay is utilized. The assay herein has been applied for high volume screening wherein 96 well microtiterplate is used. A general explanation for such assay is described in “Analysis of Human Synovial Fluid Phospholipase A2 on Short Chain Phosphatidylcholine-Mixed Micelles: Development of a Spectrophotometric Assay Suitable for a Micortiterplate Reader” (Analytical Biochemistry, 204, pp 190-197, 1992 by Laure. J. Reynolds. Lori L. Hughes and Edward A. Dennis: the disclosure of which is incorporated herein for reference.
pH 7.5 (adjusted with NaOH)
pH 4.5 (adjusted with acetic acid)
1 mg of sPLA2 is dissolved in 1 ml of an enzyme buffer. Thereafter, the solution is maintained at 4° C.
In the assay, 5 μl of the solution is diluted with 1995 μl of the reaction buffer to be used.
198 mg of 5,5′-dithiobis-2-[…] (manufactured by Wako Pure Chemicals) is dissolved in 100 ml of H2O
H 7.5 (adjusted with NaOH)
100 mg of racemic 1,2-bis(heptanoylthio)-1,2-dideoxy-sn-glycero-3-phospholylcholine is dissolved in 1 ml of chloroform.
624.9 mg of Triton-X 100 is dissolved in the reaction buffer.
Enzyme Reaction: for 1 Plate of Microtiterplate
1) 0.106 ml of the substrate solution is put in a centrifugal tube, and nitrogen gas is jetted to remove the solvent. 0.54 ml of Triton-X 100 is added thereto, the mixture is stirred, thereafter it is sonified in a bath type sonification to dissolve. To the resulting product are added 17.8 ml of the reaction buffer and 0.46 ml of DTNB, and 0.18 ml each of the admixture is poured to wells of the 96 well microtiterplate.
2) 10 μl of a test compound (or solvent blank) are added in accordance with alignment of plates which has been previously set.
3) Incubation is effected at 40° C. for 15 minutes.
4) 20μl of an enzyme solution (sPLA2) which has been previously diluted (50 ng/well) are added to start reaction (40° C., 30 minutes).
5) Changes in absorbancy for 30 minutes are measured by a plate reader, and inhibition activity was calculated (OD: 405 nm).
6) IC50 was determined by plotting log concentration with respect to inhibition values within 10% to 90% inhibiting range.

pIC50: −log10 of the molar value. Where a name gives a salt, the structure may show the parent alone.

Broadly, the melting point is the temperature of the solid-liquid transition. The compound `CCc1c(C(=O)C(N)=O)c2c(OCC(=O)O)nc(C)cn2c1Cc1ccc(F)cc1` (as salt: Na) [Compound I-99] yielded a melting point of 250 to 265 °C.

The compound `CCc1c(C(=O)C(N)=O)c2c(OCC(=O)O)nc(C)cn2c1Cc1ccccc1-c1ccsc1` (as salt: Na) [Compound I-102] registered a melting point of 260 to 263 °C.

As usually defined, the pIC50 is −log10 of the IC50, conventionally taken in molar units. Compound `CCc1c(C(=O)C(N)=O)c2c(OCC(=O)OC)nccn2c1Cc1ccccc1` [Compound I-1] returned a melting point of 151 to 152 °C. Also, the pIC50 in data set [1] is 6.68.

As to `CCc1c(C(=O)C(N)=O)c2c(OCC(=O)O)nccn2c1Cc1ccccc1` [Compound I-2, [6-Benzyl-7-ethyl-8-oxamoylpyrrolo[1,2-a]pyrazin-1-yl]oxyacetic acid], the pIC50 in data set [1] was 7.96.

In turn, `COC(=O)COc1nccn2c(Cc3ccccc3)c(C3CC3)c(C(=O)C(N)=O)c12` [Compound I-3] showed a melting point of 177 to 179 °C. Further, the pIC50 in data set [1] was 5.58.

Compound `NC(=O)C(=O)c1c(C2CC2)c(Cc2ccccc2)n2ccnc(OCC(=O)O)c12` [Compound I-4] registered a melting point of 189 to 191 °C. Also, the negative-log IC50 (pIC50) in data set [1] was 7.46.

Turning to `CCc1c(C(=O)C(N)=O)c2c(OCC(=O)OC)nccn2c1Cc1cccs1` [Compound I-5], the melting point lay in the range of 165 to 166 °C. Also, in data set [1], the pIC50 was 6.50.

`CCc1c(C(=O)C(N)=O)c2c(OCC(=O)O)nccn2c1Cc1cccs1` [Compound I-6]: the melting point is 225 to 227 °C. Also, the pIC50 in data set [1] was 8.05.

`CCc1c(C(=O)C(N)=O)c2c(OCC(=O)OC)nccn2c1CC1CCCCC1` [Compound I-7] had a melting point of 162 to 163 °C. Moreover, the pIC50 in data set [1] was 6.41.

For `CCc1c(C(=O)C(N)=O)c2c(OCC(=O)O)nccn2c1CC1CCCCC1` [Compound I-8], the melting point lay in the range of 205 to 206 °C. For the same compound, in data set [1], the pIC50 is 7.96.

The compound `CCc1c(C(=O)C(N)=O)c2c(OCC(=O)OC)nccn2c1Cc1cccc(OC)c1` [Compound I-9] had a melting point of 154 to 155 °C. In addition, in data set [1], the pIC50 was 6.36.

As for `CCc1c(C(=O)C(N)=O)c2c(OCC(=O)O)nccn2c1Cc1cccc(OC)c1` [Compound I-10], the melting point fell in the range of 196 to 197.5 °C. Further, in data set [1], the pIC50 is 7.85.

`CCc1c(C(=O)C(N)=O)c2c(OCC(=O)OC)nccn2c1Cc1ccc2ccsc2c1` [Compound I-11] showed a melting point of 144 to 148 °C. Moreover, in data set [1], the pIC50 was 6.71.

Take `CCc1c(C(=O)C(N)=O)c2c(OCC(=O)O)nccn2c1Cc1ccc2ccsc2c1` [Compound I-12]: the melting point lay within 209 to 211 °C. Besides, the pIC50 in data set [1] is 8.00.

On to `COC(=O)COc1nccn2c(Cc3ccccc3)c(C)c(C(=O)C(N)=O)c12` [Compound I-13], for which the melting point is 182 to 183 °C. For the same compound, the pIC50 in data set [1] is 6.80.

Turning to `Cc1c(C(=O)C(N)=O)c2c(OCC(=O)O)nccn2c1Cc1ccccc1` [Compound I-14], the melting point lay within 207 to 208 °C. The negative logarithm of the IC50 (pIC50) in data set [1] is 7.96.

Consider `CCc1c(C(=O)C(N)=O)c2c(OCC(=O)OC)nccn2c1CC1CCCC1` [Compound I-15], for which the melting point is 165 to 166 °C. For the same compound, in data set [1], the pIC50 is 6.29.

In turn, `CCc1c(C(=O)C(N)=O)c2c(OCC(=O)O)nccn2c1CC1CCCC1` [Compound I-16] showed a melting point of 203 to 205 °C. Further, the pIC50 in data set [1] is 8.22.

With `CCc1c(C(=O)C(N)=O)c2c(OCC(=O)OC)nc(C)cn2c1Cc1ccccc1` [Compound I-17], the melting point fell in the range of 192 to 194 °C. The pIC50 in data set [1] was 6.76.

On to `CCc1c(C(=O)C(N)=O)c2c(OCC(=O)O)nc(C)cn2c1Cc1ccccc1` [Compound I-18, [6-Benzyl-7-ethyl-3-methyl-8-oxamoylpyrrolo[1,2-a]pyrazin-1-yl]oxyacetic acid], for which the melting point lay in the range of 207 to 208 °C. Further, the pIC50 in data set [1] was 8.05.

Turning to `CCc1c(C(=O)C(N)=O)c2c(OCC(=O)OC)nc(C)cn2c1Cc1ccc(F)cc1` [Compound I-19], the melting point lay within 167 to 168 °C. Besides, in data set [1], the pIC50 was 6.25.

As for `CCc1c(C(=O)C(N)=O)c2c(OCC(=O)O)nc(C)cn2c1Cc1ccc(F)cc1` [Compound I-20], the melting point lay within 204 to 205 °C.

Take `CCc1c(C(=O)C(N)=O)c2c(OCC(=O)OC)nc(C)cn2c1Cc1ccccc1-c1ccccc1` [Compound I-21]: the melting point was 164.5 to 165.5 °C. Further, in data set [1], the pIC50 is 7.39.

`CCc1c(C(=O)C(N)=O)c2c(OCC(=O)O)nc(C)cn2c1Cc1ccccc1-c1ccccc1` [Compound I-22, [6-(2-Biphenylmethyl)-7-ethyl-3-methyl-8-oxamoylpyrrolo [1,2-a]pyrazin-1-yl]oxyacetic acid] returned a melting point of 192 to 194 °C. The pIC50 in data set [1] is 8.10.

In turn, `CCc1c(C(=O)C(N)=O)c2c(OCC(=O)OC)nc(C)cn2c1CC1CCCC1` [Compound I-23] returned a melting point of 135 to 136.5 °C. The pIC50 in data set [1] was 6.19.

The compound `CCc1c(C(=O)C(N)=O)c2c(OCC(=O)O)nc(C)cn2c1CC1CCCC1` [Compound I-24] had a melting point of 192 to 193 °C. Further, the pIC50 in data set [1] is 7.77.

`CCc1c(C(=O)C(N)=O)c2c(OCC(=O)OC)nc(C)cn2c1Cc1ccccc1F` [Compound I-25] registered a melting point of 187 to 188 °C. For the same compound, the pIC50 in data set [1] is 6.71.

As for `CCc1c(C(=O)C(N)=O)c2c(OCC(=O)O)nc(C)cn2c1Cc1ccccc1F` [Compound I-26], the melting point lay within 218 to 219 °C. Besides, in data set [1], the pIC50 was 7.92.

The compound `CCc1c(C(=O)C(N)=O)c2c(OCC(=O)OC)nc(C)cn2c1Cc1ccccc1Cc1ccccc1` [Compound I-27] registered a melting point of 134.5 to 136 °C. In addition, the pIC50 in data set [1] was 7.66.

Regarding `CCc1c(C(=O)C(N)=O)c2c(OCC(=O)O)nc(C)cn2c1Cc1ccccc1-c1cccs1` [Compound I-52, [7-Ethyl-3-methyl-8-oxamoyl-6-(2-(2-thienyl)benzyl)pyrrolo[1,2-a]pyrazin-1-yl]oxyacetic acid], the pIC50 in data set [1] was 8.30.

Turning to `CCc1c(C(=O)C(N)=O)c2c(OCC(=O)O)nc(C)cn2c1Cc1ccccc1C#Cc1ccccc1` [Compound I-54, [7-Ethyl-3-methyl-8-oxamoyl-6-(2-phenylethynylbenzyl)pyrrolo [1,2-a]pyrazin-1-yl]oxyacetic acid], in data set [1], the pIC50 was 8.22.

As for `CCc1c(C(=O)C(N)=O)c2c(SCC(=O)O)nc(C)cn2c1Cc1ccccc1-c1ccc(F)cc1` [Compound I-58], the negative logarithm of the IC50 (pIC50) in data set [1] was 7.60.

Regarding `COC(=O)COc1nc(C)c(Cc2ccc(F)cc2)n2cc(C)c(C(=O)C(N)=O)c12` [Compound I-59], the negative-log IC50 (pIC50) in data set [1] is 4.80.

As for `Cc1cn2c(Cc3ccc(F)cc3)c(C)nc(OCC(=O)O)c2c1C(=O)C(N)=O` [Compound I-60], the pIC50 in data set [1] is 5.92.

With `CCc1c(C(=O)C(N)=O)c2c(OCC(=O)OC)nc(C)cn2c1Cc1ccccc1-c1cccnc1` [Compound I-65], the pIC50 in data set [1] was 5.81.

Take `CCc1c(C(=O)C(N)=O)c2c(OCC(=O)O)nc(C)cn2c1Cc1ccccc1-c1cccnc1` [Compound I-66]: the pIC50 in data set [1] is 7.35.

In the case of `CCc1c(C(=O)C(N)=O)c2c(OCC(=O)OC)nc(C)cn2c1Cc1ccccc1-c1ccc(OC)cc1` [Compound I-67], in data set [1], the pIC50 is 7.24.

For the compound `CCc1c(C(=O)C(N)=O)c2c(OCC(=O)O)nc(C)cn2c1Cc1ccccc1-c1ccc(OC)cc1` [Compound I-68], in data set [1], the pIC50 is 8.10.

As to `CCc1c(C(=O)C(N)=O)c2c(OCC(=O)OCCN3CCOCC3)nc(C)cn2c1Cc1ccccc1-c1ccc(F)cc1` [Compound I-96], in data set [1], the pIC50 is 7.11.

Take `CCc1c(C(=O)C(N)=O)c2c(OCC(=O)OCCN3CCOCC3)nc(C)cn2c1Cc1ccccc1-c1cccs1` [Compound I-97]: the pIC50 in data set [1] was 7.11.

Regarding `CCc1c(C(=O)C(N)=O)c2c(OCC(=O)O)nc(C)cn2c1Cc1ccc(F)cc1` [Compound I-99], the pIC50 in data set [1] was 7.68.

Take `CCc1c(C(=O)C(N)=O)c2c(OCC(=O)O)nc(C)cn2c1Cc1ccccc1-c1ccc(F)cc1` [Compound I-100]: the pIC50 in data set [1] was 7.68.

Consider `CCc1c(C(=O)C(N)=O)c2c(OCC(=O)O)nc(C)cn2c1Cc1ccccc1-c1cccs1` [Compound I-101], for which the pIC50 in data set [1] was 7.72.

For `CCc1c(C(=O)C(N)=O)c2c(OCC(=O)O)nc(C)cn2c1Cc1ccccc1-c1ccsc1` [Compound I-102], in data set [1], the negative logarithm of the IC50 (pIC50) is 7.70.
